Reference: patent publication US8829034B2, “Compounds which modulate the CB2 receptor” (Boehringer Ingerlheim International GmbH, priority 2006, dated 2014)

Target: T1, human CB2R (Homo sapiens, UniProt P34972)
T1 construct: host or cells: CHO cells
Assay: CB2R mediated modulation of cAMP synthesis
Format: cell-based
Details: for agonistic activity: found through the use of the above described assays
Protocol: B. CB2R Mediated Modulation of cAMP Synthesis:
CHO cells expressing human CB2R (Euroscreen) were plated at a density of 5000 cells per well in 384 well plates and incubated overnight at 37° C. After removing the media, the cells were treated with test compounds diluted in stimulation buffer containing 1 mM IBMX, 0.25% BSA and 10 uM Forskolin. The assay was incubated for 30 minutes at 37° C. Cells were lysed and the cAMP concentration was measured using DiscoverX-XS cAMP kit, following the manufacturer's protocol. In this setting, agonists will decrease forskolin induced production of cAMP while inverse agonists will further increase forskolin induced production of cAMP. EC50 of agonists were calculated as follows. The maximal amount of cAMP produced by forskolin compared to the level of cAMP inhibited by 1 uM CP55940 is defined as 100%. The EC50 value of each test compound was determined as the concentration at which 50% of the forskolin-stimulated cAMP synthesis was inhibited. Data was analyzed using a four-parameter logistic model. (Model 205 of XLfit 4.0).

T1 sequence (P34972 whole entry): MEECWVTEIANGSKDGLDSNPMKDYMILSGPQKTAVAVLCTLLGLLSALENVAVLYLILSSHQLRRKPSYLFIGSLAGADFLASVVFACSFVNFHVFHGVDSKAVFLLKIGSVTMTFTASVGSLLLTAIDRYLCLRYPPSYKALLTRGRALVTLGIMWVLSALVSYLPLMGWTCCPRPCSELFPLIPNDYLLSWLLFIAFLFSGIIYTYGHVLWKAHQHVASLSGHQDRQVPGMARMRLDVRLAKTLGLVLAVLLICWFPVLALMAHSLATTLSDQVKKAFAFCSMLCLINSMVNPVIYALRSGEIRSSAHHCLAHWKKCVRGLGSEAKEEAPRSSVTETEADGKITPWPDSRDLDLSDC

Structure (SMILES) | agonistic activity | EC50
CC(C)(C(=O)Nc1ccc(C(F)(F)F)cn1)S(=O)(=O)CC1CCCO1 (centres unmarked) [2-Methyl-2-(tetrahydro-furan-2-ylmethanesulfonyl)-N-(5-trifluoromethyl-pyridin-2-yl)-propionamide] | agonistic activity | –
CC(C)(C(=O)Nc1ccc(C(F)(F)F)cn1)S(=O)(=O)CC1CCCCO1 (centres unmarked) [2-Methyl-2-(tetrahydro-pyran-2-ylmethanesulfonyl)-N-(5-trifluoromethyl-pyridin-2-yl)-propionamide] | agonistic activity | –
CC(C)(C(=O)Nc1ccc(C(F)(F)F)cn1)S(=O)(=O)C1CCOCC1 [2-Methyl-2-(tetrahydro-pyran-4-sulfonyl)-N-(5-trifluoromethyl-pyridin-2-yl)-propionamide] | agonistic activity | 62.4 nM
CC(C)(C(=O)Nc1cccc(C(F)(F)F)c1)S(=O)(=O)CC1CCOCC1 [2-Methyl-2-(tetrahydro-pyran-4-ylmethanesulfonyl)-N-(3-trifluoromethyl-phenyl)-propionamide] | agonistic activity | –
CC(C)(C(=O)Nc1ccc(C(F)(F)F)cc1)S(=O)(=O)CC1CCOCC1 [2-Methyl-2-(tetrahydro-pyran-4-ylmethanesulfonyl)-N-(4-trifluoromethyl-phenyl)-propionamide] | agonistic activity | –
CC(C)(C(=O)Nc1cc(C(F)(F)F)ccn1)S(=O)(=O)CC1CCOCC1 [2-Methyl-2-(tetrahydro-pyran-4-ylmethanesulfonyl)-N-(4-trifluoromethyl-pyridin-2-yl)-propionamide] | agonistic activity | –
CC(C)(C(=O)Nc1nc(C(F)(F)F)cs1)S(=O)(=O)CC1CCOCC1 [2-Methyl-2-(tetrahydro-pyran-4-ylmethanesulfonyl)-N-(4-trifluoromethyl-thiazol-2-yl)-propionamide] | agonistic activity | –
CC(C)(C(=O)Nc1ccc(C(F)(F)F)cn1)S(=O)(=O)CC1CCOCC1 [2-Methyl-2-(tetrahydro-pyran-4-ylmethanesulfonyl)-N-(5-trifluoromethyl-pyridin-2-yl)-propionamide] | agonistic activity | 72.3 nM
CC(C)(C(=O)Nc1cccc(C(F)(F)F)n1)S(=O)(=O)CC1CCOCC1 [2-Methyl-2-(tetrahydro-pyran-4-ylmethanesulfonyl)-N-(6-trifluoromethyl-pyridin-2-yl)-propionamide] | agonistic activity | –
CCCS(=O)(=O)C(C)(C)C(=O)Nc1cc(-c2ccccc2)nn1C [2-Methyl-N-(2-methyl-5-phenyl-2H-pyrazol-3-yl)-2-(propane-1-sulfonyl)-propionamide] | agonistic activity | –
CC(C)S(=O)(=O)C(C)(C)C(=O)Nc1cc(-c2ccccc2)nn1C [2-Methyl-N-(2-methyl-5-phenyl-2H-pyrazol-3-yl)-2-(propane-2-sulfonyl)-propionamide] | agonistic activity | –
Cn1nc(-c2ccccc2)cc1NC(=O)C(C)(C)S(=O)(=O)C1CCOCC1 [2-Methyl-N-(2-methyl-5-phenyl-2H-pyrazol-3-yl)-2-(tetrahydro-pyran-4-sulfonyl)-propionamide] | agonistic activity | –
Cn1nc(-c2ccccc2)cc1NC(=O)C(C)(C)S(=O)(=O)CC1CCOCC1 [2-Methyl-N-(2-methyl-5-phenyl-2H-pyrazol-3-yl)-2-(tetrahydro-pyran-4-ylmethanesulfonyl)-propionamide] | agonistic activity | –
CCCS(=O)(=O)C(C)(C)C(=O)Nc1cc(-c2cccs2)nn1C [2-Methyl-N-(2-methyl-5-thiophen-2-yl-2H-pyrazol-3-yl)-2-(propane-1-sulfonyl)-propionamide] | agonistic activity | –
CC(C)S(=O)(=O)C(C)(C)C(=O)Nc1cc(-c2cccs2)nn1C [2-Methyl-N-(2-methyl-5-thiophen-2-yl-2H-pyrazol-3-yl)-2-(propane-2-sulfonyl)-propionamide] | agonistic activity | –
CC(C)(C(=O)Nc1nc(-c2ccccc2)ns1)S(=O)(=O)CC1CCOCC1 [2-Methyl-N-(3-phenyl-1,2,4-thiadiazol-5-yl)-2-(tetrahydro-pyran-4-ylmethanesulfonyl)-propionamide] | agonistic activity | –
CCCc1cc(NC(=O)C(C)(C)S(=O)(=O)CC2CCOCC2)on1 [2-Methyl-N-(3-propyl-isoxazol-5-yl)-2-(tetrahydro-pyran-4-ylmethanesulfonyl)-propionamide] | agonistic activity | –
CC(C)S(=O)(=O)C(C)(C)C(=O)Nc1nc(-c2ccccc2)cs1 [2-Methyl-N-(4-phenyl-thiazol-2-yl)-2-(propane-2-sulfonyl)-propionamide] | agonistic activity | –
CC(C)(C(=O)Nc1nc(-c2ccccc2)cs1)S(=O)(=O)CC1CCOCC1 [2-Methyl-N-(4-phenyl-thiazol-2-yl)-2-(tetrahydro-pyran-4-ylmethanesulfonyl)-propionamide] | agonistic activity | 7.1 nM
CC(C)(C(=O)Nc1nc(-c2ccccn2)cs1)S(=O)(=O)CC1CCOCC1 [2-Methyl-N-(4-pyridin-2-yl-thiazol-2-yl)-2-(tetrahydro-pyran-4-ylmethanesulfonyl)-propionamide] | agonistic activity | –
CC(C)(C(=O)Nc1nc(-c2cccnc2)cs1)S(=O)(=O)CC1CCOCC1 [2-Methyl-N-(4-pyridin-3-yl-thiazol-2-yl)-2-(tetrahydro-pyran-4-ylmethanesulfonyl)-propionamide] | agonistic activity | –
CC(C)(C(=O)Nc1nc(-c2ccncc2)cs1)S(=O)(=O)CC1CCOCC1 [2-Methyl-N-(4-pyridin-4-yl-thiazol-2-yl)-2-(tetrahydro-pyran-4-ylmethanesulfonyl)-propionamide] | agonistic activity | –
CCCS(=O)(=O)C(C)(C)C(=O)Nc1nc(-c2ccccc2)c(C)s1 [2-Methyl-N-(5-methyl-4-phenyl-thiazol-2-yl)-2-(propane-1-sulfonyl)-propionamide] | agonistic activity | 52.2 nM
Cc1sc(NC(=O)C(C)(C)S(=O)(=O)CC2CCOCC2)nc1-c1ccccc1 [2-Methyl-N-(5-methyl-4-phenyl-thiazol-2-yl)-2-(tetrahydro-pyran-4-ylmethanesulfonyl)-propionamide] | agonistic activity | 2.5 nM
Cc1ccc(NC(=O)C(C)(C)S(=O)(=O)CC2CCOCC2)nc1 [2-Methyl-N-(5-methyl-pyridin-2-yl)-2-(tetrahydro-pyran-4-ylmethanesulfonyl)-propionamide] | agonistic activity | –
CC(C)(C(=O)Nc1nnc(-c2ccccc2)[nH]1)S(=O)(=O)CC1CCOCC1 [2-Methyl-N-(5-phenyl-4H-1,2,4-triazol-3-yl)-2-(tetrahydro-pyran-4-ylmethanesulfonyl)-propionamide] | agonistic activity | 1.7 nM
CC(C)(C(=O)Nc1nsc(-c2ccccc2)n1)S(=O)(=O)CC1CCOCC1 [2-Methyl-N-(5-phenyl-[1,2,4]thiadiazol-3-yl)-2-(tetrahydro-pyran-4-ylmethanesulfonyl)-propionamide] | agonistic activity | 17.6 nM
CCCS(=O)(=O)C(C)(C)C(=O)Nc1ccc(-c2ccccc2)cn1 [2-Methyl-N-(5-phenyl-pyridin-2-yl)-2-(propane-1-sulfonyl)-propionamide] | agonistic activity | –
